Format in all cases: cell-based
One assay relates to E. coli strains DH5α. The assay can be described thus: Minimal inhibitory concentration (MIC), two fold serial dilutions in 2×YT broth. Particulars: 37° C., 18 hours, lowest concentration that inhibited visible growth. The method, then:
(§1) Minimal inhibitory concentrations (MIC) of compounds of the invention against E. coli strains DH5α (Genotype; F-ω80dlacZΔM15Δ(lacZYA-argF)U169 deoR recA1 endA1 hsdR17(rk^−,mk^+)phoA supE44λ^−thi-1 gyrA96 relA1) obtained from Gibco BRL Life Technologies, or Staphylococcus capitis (American Type Culture Collection number 35661) were determined as follows. Stock solutions of each test compound were prepared by dissolution of the compound in dimethylsulfoxide at 10 mM. For the determination of the minimal inhibitory concentration, two fold serial dilutions were prepared in 2×YT broth (typtone 16 g/1, yeast extract 10 g/1, sodium chloride 5 g/1 obtained from BIO 101 Inc, 1070 Joshua Way, Vista, Calif. 92083, USA) to yield 0.05 ml compound-containing medium per well. Inoculate were prepared from cultures grown overnight in 2×YT broth at 37° C. Cell densities were adjusted to absorbance at 660 nm (A660)=0.1; the optical density-standardised preparations were diluted 1:1000 in 2×YT broth; and each well inoculated with 0.05 ml of the diluted bacteria. Microtiter plates were incubated at 37° C. for 18 hours in a humidified incubator. The MIC (μM) was recorded as the lowest drug concentration that inhibited visible growth.

For assay [1], the system named is Staphylococcus capitis (American Type Culture Collection number 35661). The assay is described as above. Particulars: S. capitis ATCC 35661, 2×YT broth, 37° C., 18 hours, lowest concentration that inhibited visible growth. Here is the method:
as §1

For another assay, the system named is Streptococcus pneumoniae. The assay can be described thus: MIC against respiratory tract pathogens, Microdilution Broth Method (NCCLS). The method, then: (§2) In another experiment, the MICs of the compound of Example 91 were determined against certain respiratory tract pathogens, using the Microdilution Broth Method according to the approved standard of the National Committee for Clinical Laboratory Standards procedure (Methods for dilution antimicrobial susceptibility tests for bacteria that grow aerobically—Fourth Edition ISBN 1-56238-309-4).

The next assay concerns Haemophilus Influenza. The assay is described as above. The method, then:
as §2

Another assay deals with Moraxella catarrhalis. The description is as above. The method, then:
as §2

Setting [2] is: Staphylococcus capitis, ATCC35661.

In brackets after ≈: the same amount, converted by molar mass. Where two headings read alike, the source gives them in different places.

In the assay on E. coli strains DH5α (Escherichia coli), `CCCC[C@H](CN(O)C=O)C(=O)N1CCN(CCOCCO)CC1` [Example 29, N-Hydroxy-N-(2R-{4-[2-(2-hydroxy-ethoxy)-ethyl]-piperazine-1-carbonyl}-hexyl)-formamide] displayed an MIC of 100 µM (≈ 34.5 µg/mL).

For the molecule `CCCC[C@H](CN(O)C=O)C(=O)N[C@H](C(=O)N1CCN(C(=O)c2ccc3c(c2)OCO3)CC1)C(C)(C)C` [Example 55, 2R-[(Formyl-hydroxy-amino)-methyl]-hexanoic acid {1S-[4-(3a,7a-dihydro-benzo[1,3]dioxole-5-carbonyl)-piperazine-1-carbonyl]-2,2-dimethyl-propyl}-amide], the MIC in assay [1] (setting [2]) is 6.2 µM (≈ 3.22 µg/mL); against E. coli strains DH5α (Escherichia coli), 200 µM (≈ 104 µg/mL).

As for `CN(C)C(=O)c1ccc(OC2CCN(C(=O)[C@@H](NC(=O)[C@H](CC3CCCC3)CN(O)C=O)C(C)(C)C)CC2)cc1` [Example 88, 4-(1S-{2-[2R-Cyclopentylmethyl-3-(formyl-hydroxy-amino)-propionylamino]-3,3-dimethyl-butyryl}-piperidin-4-yloxy)-N,N-dimethyl-benzamide], the values for the MIC (in assay [1] (setting [2]); against E. coli strains DH5α (Escherichia coli)) were 6.2 µM (≈ 3.46 µg/mL) and 100 µM (≈ 55.9 µg/mL), respectively.

On to `CC(C)(C)[C@H](NC(=O)[C@H](CC1CCCC1)CN(O)C=O)C(=O)N1CCN(Cc2ccccc2C#N)CC1` [Example 50, N-{1S-[4-(2-Cyano-benzyl)-piperazine-1-carbonyl]-2,2-dimethyl-propyl}-2R-cyclopentylmethyl-3-(formyl-hydroxy-amino)-propionamide], for which the MIC in assay [1] was found to be 6.2 µM (≈ 3.17 µg/mL); in the assay on E. coli strains DH5α it was 200 µM (≈ 102 µg/mL).

Consider `CC(C)(C)[C@H](NC(=O)[C@H](CC1CCCC1)CN(O)C=O)C(=O)N1CCN(Cc2ccc(-c3ccccc3)cc2)CC1` [Example 52, N-[1S-(4-Biphenyl-4-ylmethyl-piperazine-1-carbonyl)-2,2-dimethyl-propyl]-2R-cyclopentylmethyl-3-(formyl-hydroxy-amino)-propionamide], for which the figures for the MIC (in assay [1]; in the assay with E. coli strains DH5α) were 6.2 µM (≈ 3.49 µg/mL) and 200 µM (≈ 113 µg/mL), respectively.

On to `CC(C)(C)C(NC(=O)[C@H](CC1CCCC1)CN(O)C=O)C(=O)N1CCC(Oc2ccc(C(=O)N3CCOCC3)cc2)CC1` (stereo partly drawn) [Example 89, 2R-Cyclopentylmethyl-N-(2,2-dimethyl-1S-{4-{4-(morpholine-4-carbonyl)-phenoxy}-piperidine-1-carbonyl}-propyl)-3-(formyl-hydroxy-amino)-propionamide], for which the MIC in assay [1] (setting [2]) came to 25 µM (≈ 15 µg/mL); in the assay on E. coli strains DH5α (Escherichia coli), 200 µM (≈ 120 µg/mL).

Take `CCCC[C@H](CN(O)C=O)C(=O)N[C@H](C(=O)N1CCN(C(=O)c2sc(C)nc2C)CC1)C(C)(C)C` [Example 74, 2R-[(Formyl-hydroxy-amino)-methyl]-hexanoic acid {1S-[4-(2,4-dimethyl-thiazole-5-carbonyl)-piperazine-1-carbonyl]-2,2-dimethyl-propyl}-amide]: the MIC came out at 25 µM (≈ 12.7 µg/mL) in assay [1] and 200 µM (≈ 102 µg/mL) in the assay on E. coli strains DH5α.

As to `CCCC[C@H](CN(O)C=O)C(=O)N[C@H](C(=O)N1CCN(C(=O)c2snnc2C)CC1)C(C)(C)C` [Example 69, 2R-[(Formyl-hydroxy-amino)-methyl]-hexanoic acid {2,2-dimethyl-1S-[4-(4-methyl-[1,2,3]thiadiazole-5-carbonyl)-piperazine-1-carbonyl]-propyl}-amide], the MIC came out at 25 µM (≈ 12.4 µg/mL) in assay [1] and 200 µM (≈ 99.3 µg/mL) against E. coli strains DH5α.

In turn, `CCCC[C@H](CN(O)C=O)C(=O)N[C@H](C(=O)N1CCN(S(=O)(=O)c2ccc(-c3ccccc3)cc2)CC1)C(C)(C)C` [Example 78, 2R-[(Formyl-hydroxy-amino)-methyl]-hexanoic acid {1S-[4-(biphenyl-4-sulfonyl)-piperazine-1-carbonyl]-2,2-dimethyl-propyl}-amide] had an MIC in assay [1] of 200 µM (≈ 117 µg/mL).

Take `CCCC[C@H](CN(O)C=O)C(=O)N[C@H](C(=O)N1CCN(Cc2cccnc2)CC1)C(C)(C)C` [Example 56, 2R-[(Formyl-hydroxy-amino)methyl]-hexanoic acid [2,2-dimethyl-1S-(4-pyridin-3-ylmethyl-piperazine-1-carbonyl)-propyl]-amide]: the results for the MIC (in assay [1] (setting [2]); in the assay with E. coli strains DH5α (Escherichia coli)) were 25 µM (≈ 11.5 µg/mL) and 50 µM (≈ 23.1 µg/mL), respectively.

As to `CC(C)(C)C(NC(=O)[C@H](CC1CCCC1)CN(O)C=O)C(=O)N1CCC(Oc2ccc(C(=O)N3CCC(O)CC3)cc2)CC1` (stereo partly drawn) [Example 91, 2R-Cyclopentylmethyl-3-(formyl-hydroxy-amino)-N-(1S-{4-[4-(4-hydroxy-piperidine-1-carbonyl)-phenoxy]-piperidine-1-carbonyl}-2,2-dimethyl-propyl)-propionamide], the “MIC” value with Streptococcus pneumoniae (Streptococcus pneumoniae (PIP) 2391) turned out to be 0.25 µg/mL (≈ 0.407 µM); against Streptococcus pneumoniae (Streptococcus pneumoniae (PRP) 2390) it was 0.25 µg/mL (≈ 0.407 µM); in the assay on Streptococcus pneumoniae (Streptococcus pneumoniae (PSP) 2403, read-out: MIC), 0.25 µg/mL (≈ 0.407 µM); with Haemophilus Influenza (Haemophilus Influenza 1390) it was 1 µg/mL (≈ 1.63 µM); with Haemophilus Influenza (Haemophilus Influenza 1414), 4 µg/mL (≈ 6.51 µM); with Moraxella catarrhalis (Moraxella catarrhalis 2412), 0.5 µg/mL (≈ 0.813 µM). The MIC in the assay on Moraxella catarrhalis (Moraxella catarrhalis 2413) was found to be 0.25 µg/mL (≈ 0.407 µM); in assay [1] (setting [2]) it was 25 µM (≈ 15.4 µg/mL); in the assay on E. coli strains DH5α (Escherichia coli) it was 200 µM (≈ 123 µg/mL).

Regarding `CC(C)(C)[C@H](NC(=O)[C@H](CC1CCCC1)CN(O)C=O)C(=O)N1CCN(Cc2ccc3c(c2)OCO3)CC1` [Example 57, N-[1S-(4-Benzo[1,3]dioxol-5-ylmethyl-piperazine-1-carbonyl)-2,2-dimethyl-propyl]-2R-cyclopentylmethyl-3-(formyl-hydroxy-amino)-propionamide], the results for the MIC (in assay [1] (setting [2]); with E. coli strains DH5α (Escherichia coli)) were 6.2 µM (≈ 3.29 µg/mL) and 100 µM (≈ 53.1 µg/mL), respectively.

`CCCC[C@H](CN(O)C=O)C(=O)N1CCC(c2ccccc2)CC1` [Example 24, N-Hydroxy-N-[2R-(4-phenyl-piperidine-1-carbonyl)-hexyl]-formamide] gave an MIC in assay [1] (setting [2]) of 100 µM (≈ 33.2 µg/mL).

In assay [1], `CCCC[C@H](CN(O)C=O)C(=O)N[C@H](C(=O)N1CCN(C(=O)c2ccc(-c3ccccc3)cc2)CC1)C(C)(C)C` [Example 79, 2R-[(Formyl-hydroxy-amino)-methyl]-hexanoic acid {1S-[4-(biphenyl-4-carbonyl)-piperazine-1-carbonyl]-2,2-dimethyl-propyl}-amide] had an MIC of 6.25 µM (≈ 3.44 µg/mL).

Regarding `CCCC[C@H](CN(O)C=O)C(=O)N[C@H](C(=O)N1CCN(Cc2ccccc2C#N)CC1)C(C)(C)C` [Example 44, 2R-[(Formyl-hydroxy-amino)-methyl]-hexanoic acid {1S-[4-(2-cyano-benzyl)-piperazine-1-carbonyl]-2,2-dimethyl-propyl}-amide], the results for the MIC (in assay [1]; in the assay on E. coli strains DH5α) were 12 µM (≈ 5.83 µg/mL) and 200 µM (≈ 97.1 µg/mL), respectively.

Consider `CC(C)(C)[C@H](NC(=O)[C@H](CC1CCCC1)CN(O)C=O)C(=O)N1CCN(Cc2ccc3ccccc3c2)CC1` [Example 54, 2R-Cyclopentylmethyl-N-[2,2-dimethyl-1S-(4-naphthalen-2-ylmethyl-piperazine-1-carbonyl)-propyl]-3-(formyl-hydroxy-amino)-propionamid], for which the MIC in assay [1] worked out at 3.1 µM (≈ 1.66 µg/mL); in the assay with E. coli strains DH5α, 200 µM (≈ 107 µg/mL).

Source of the values: US6846825B1, “Antibacterial agents” (British Biotech Pharmaceuticals Limited, priority 1999, dated 2005).
